Measurements taken from patent publication US11084829B2, “Ubiquitin-specific-processing protease 7 (USP7) modulators and uses thereof” (RAPT THERAPEUTICS, INC., priority 2018, dated 2021).

Molecular target: USP7 (Homo sapiens, UniProt Q93009)
Experiment: USP7 inhibitory potency (IC50)
Format: biochemical
Procedure: Activity for compounds described herein is provided in Table 2, wherein potency levels are provided as follows: (Potency: USP7 IC50: A<0.01 μM; B=0.01-0.1 μM; C=>0.1 μM.

USP7, sequence (Q93009 whole entry): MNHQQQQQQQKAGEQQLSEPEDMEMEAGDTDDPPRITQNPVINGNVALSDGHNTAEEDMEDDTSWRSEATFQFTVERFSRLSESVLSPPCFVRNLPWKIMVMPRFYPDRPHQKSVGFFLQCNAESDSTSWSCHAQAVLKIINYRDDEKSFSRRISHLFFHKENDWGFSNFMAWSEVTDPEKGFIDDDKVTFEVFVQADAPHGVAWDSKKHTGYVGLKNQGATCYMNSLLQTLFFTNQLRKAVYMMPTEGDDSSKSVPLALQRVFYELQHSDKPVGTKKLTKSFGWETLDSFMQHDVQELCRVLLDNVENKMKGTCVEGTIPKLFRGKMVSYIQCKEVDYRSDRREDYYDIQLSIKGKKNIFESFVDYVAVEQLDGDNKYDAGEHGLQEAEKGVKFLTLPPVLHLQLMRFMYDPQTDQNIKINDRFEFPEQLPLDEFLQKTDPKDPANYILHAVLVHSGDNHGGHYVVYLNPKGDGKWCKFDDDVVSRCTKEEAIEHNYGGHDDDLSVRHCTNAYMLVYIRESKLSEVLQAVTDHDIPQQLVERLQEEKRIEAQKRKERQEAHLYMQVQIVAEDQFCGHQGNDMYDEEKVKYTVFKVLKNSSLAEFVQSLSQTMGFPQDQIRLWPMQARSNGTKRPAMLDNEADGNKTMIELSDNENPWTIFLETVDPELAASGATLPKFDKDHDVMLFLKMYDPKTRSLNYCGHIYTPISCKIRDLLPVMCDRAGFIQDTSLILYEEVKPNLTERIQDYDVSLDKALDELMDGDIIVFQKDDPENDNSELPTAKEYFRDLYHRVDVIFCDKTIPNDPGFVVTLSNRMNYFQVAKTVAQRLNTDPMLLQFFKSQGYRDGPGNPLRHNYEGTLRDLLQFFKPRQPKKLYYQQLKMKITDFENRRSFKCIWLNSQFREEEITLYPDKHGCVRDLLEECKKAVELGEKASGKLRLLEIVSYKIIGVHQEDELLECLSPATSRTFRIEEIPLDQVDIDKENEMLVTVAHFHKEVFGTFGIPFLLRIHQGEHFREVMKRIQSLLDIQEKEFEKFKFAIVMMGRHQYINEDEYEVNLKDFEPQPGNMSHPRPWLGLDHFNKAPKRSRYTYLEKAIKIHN

| Structure (SMILES) | IC50 [µM] |
| --- | --- |
| C[C@H]1CNC[C@H](C)N1Cc1c(Cl)cc(Cl)cc1-c1ncnc2cc(CN3C(=O)C4CC4C3=O)sc12 (stereo partly drawn) [Example 85, 3-((4-(3,5-dichloro-2-(((2S,6S)-2,6-dimethylpiperazin-1-yl)methyl)phenyl)thieno[3,2-d]pyrimidin-6-yl)methyl)-3-azabicyclo[3.1.0]hexane-2,4-dione] | < 0.01 |
| COCc1cc2ncnc(-c3cc(Cl)cc(C)c3C[C@@H]3CNCC(C)(C)O3)c2s1 [Example 269, (R)-6-(4-chloro-2-(6-(methoxymethyl)thieno[3,2-d]pyrimidin-4-yl)-6-methylbenzyl)-2,2-dimethylmorpholine] | > 0.1 |
| Cc1cc(Cl)cc(-c2ncnc3cc(CN4C(=O)CCCC4=O)sc23)c1CC1CNCCO1 (stereo not drawn) [Example 163, 1-((4-(5-chloro-3-methyl-2-(morpholin-2-ylmethyl)phenyl)thieno[3,2-d]pyrimidin-6-yl)methyl)piperidine-2,6-dione] | < 0.01 |
| CCN1CCN(Cc2c(C)cc(Cl)cc2-c2ncnc3cc(CN4C(=O)C5C(C4=O)C5(C)C)sc23)[C@@H](C)C1 (stereo partly drawn) [Example 54, 3-((4-(5-chloro-2-(((S)-4-ethyl-2-methylpiperazin-1-yl)methyl)-3-methylphenyl)thieno[3,2-d]pyrimidin-6-yl)methyl)-6,6-dimethyl-3-azabicyclo[3.1.0]hexane-2,4-dione] | < 0.01 |
| Cc1cc(Cl)cc(-c2ncnc3cc(CN4C(=O)CCC4=O)sc23)c1CC1CNCC2(COC2)O1 (stereo not drawn) [Example 237, 1-((4-(2-((2,5-dioxa-8-azaspiro[3.5]nonan-6-yl)methyl)-5-chloro-3-methylphenyl)thieno[3,2-d]pyrimidin-6-yl)methyl)pyrrolidine-2,5-dione] | < 0.01 |
| Cc1cc(Cl)cc(-c2ncnc3cc(CN4C(=O)C5CC5C4=O)sc23)c1CC1(C)CNCCO1 (stereo not drawn) [Example 156, 3-((4-(5-chloro-3-methyl-2-((2-methylmorpholin-2-yl)methyl)phenyl)thieno[3,2-d]pyrimidin-6-yl)methyl)-3-azabicyclo[3.1.0]hexane-2,4-dione] | 0.01 to 0.1 |
| Cc1cc(Cl)cc(-c2ncnc3cc(CNC4(CCC(=O)O)CC4)sc23)c1CC1CNCC(C)(C)O1 (stereo not drawn) [Example 202, 3-(1-(((4-(5-chloro-2-((6,6-dimethylmorpholin-2-yl)methyl)-3-methylphenyl)thieno[3,2-d]pyrimidin-6-yl)methyl)amino)cyclopropyl)propanoic acid] | 0.01 to 0.1 |
| Cc1cc(Cl)cc(-c2ncnc3cc(CN4C(=O)C5CC5C4=O)sc23)c1C[C@@H]1CNC[C@@H](C)O1 (stereo partly drawn) [Example 155, 3-((4-(5-chloro-3-methyl-2-(((2R,6R)-6-methylmorpholin-2-yl)methyl)phenyl)thieno[3,2-d]pyrimidin-6-yl)methyl)-3-azabicyclo[3.1.0]hexane-2,4-dione] | < 0.01 |
| CCN1CC(=O)N(Cc2cc3ncnc(-c4cc(Cl)cc(C)c4CN4C[C@@H](C)NC[C@@H]4C)c3s2)C1=O [Example 83, 3-((4-(5-chloro-2-(((2S,5R)-2,5-dimethylpiperazin-1-yl)methyl)-3-methylphenyl)thieno[3,2-d]pyrimidin-6-yl)methyl)-1-ethylimidazolidine-2,4-dione] | < 0.01 |
| Cc1cc(Cl)cc(-c2ncnc3cc(CN4C(=O)CCC45CC5)sc23)c1CC1CNCC(C)(C)O1 (stereo not drawn) [Example 203, 4-((4-(5-chloro-2-((6,6-dimethylmorpholin-2-yl)methyl)-3-methylphenyl)thieno[3,2-d]pyrimidin-6-yl)methyl)-4-azaspiro[2.4]heptan-5-one] | 0.01 to 0.1 |
| O=C1CCC(=O)N1Cc1cc2nccc(-c3cc(Cl)cc(Cl)c3CC3CNCCO3)c2s1 (stereo not drawn) [Example 127, 1-((7-(3,5-dichloro-2-(morpholin-2-ylmethyl)phenyl)thieno[3,2-b]pyridin-2-yl)methyl)pyrrolidine-2,5-dione] | < 0.01 |
| Cc1cc(Cl)cc(-c2ccnc3cc(CN4C(=O)CCC4=O)sc23)c1CN1C[C@H](C)N[C@@H](C)C1 [Example 25, 1-((7-(5-chloro-2-(((3 S,5 S)-3,5-dimethylpiperazin-1-yl)methyl)-3-methylphenyl)thieno[3,2-b]pyridin-2-yl)methyl)pyrrolidine-2,5-dione] | < 0.01 |
| Cc1cc(Cl)cc(-c2ncnc3cc(CN4C(=O)CN(CC(F)(F)F)C4=O)sc23)c1CC1CNCCO1 (stereo not drawn) [Example 176, 3-((4-(5-chloro-3-methyl-2-(morpholin-2-ylmethyl)phenyl)thieno[3,2-d]pyrimidin-6-yl)methyl)-1-(2,2,2-trifluoroethyl)imidazolidine-2,4-dione] | < 0.01 |

The remaining lines, values ahead:

| IC50 [µM] | Structure (SMILES) |
| --- | --- |
| 0.01 to 0.1 | Cc1cc(Cl)cc(-c2ncnc3cc(CN4C(=O)CCC4=O)sc23)c1CN1C[C@@H](C)NC[C@@H]1C [Example 68, 1-((4-(5-chloro-2-(((2S,5R)-2,5-dimethylpiperazin-1-yl)methyl)-3-methylphenyl)thieno[3,2-d]pyrimidin-6-yl)methyl)pyrrolidine-2,5-dione] |
| < 0.01 | Cc1cc(Cl)cc(-c2ncnc3cc(CN4C(=O)NC(C(C)C)C4=O)sc23)c1C[C@@H]1CNCCO1 (stereo partly drawn) [Example 246, 3-((4-(5-chloro-3-methyl-2-(((R)-morpholin-2-yl)methyl)phenyl)thieno[3,2-d]pyrimidin-6-yl)methyl)-5-isopropylimidazolidine-2,4-dione] |
| 0.01 to 0.1 | Cc1cc(Cl)cc(-c2ncnc3cc(CN4C(=O)CCC4C)sc23)c1C[C@@H]1CNCC(C)(C)O1 (stereo partly drawn) [Example 241, 1-((4-(5-chloro-2-(((R)-6,6-dimethylmorpholin-2-yl)methyl)-3-methylphenyl)thieno[3,2-d]pyrimidin-6-yl)methyl)-5-methylpyrrolidin-2-one] |
| < 0.01 | Cc1cc(Cl)cc(-c2ncnc3cc(CN4C(=O)C5CC5C4=O)sc23)c1CN1[C@@H](C)CN(C(=O)C(F)(F)F)C[C@@H]1C (stereo partly drawn) [Example 84, 3-((4-(5-chloro-2-(((2S,6S)-2,6-dimethyl-4-(2,2,2-trifluoroacetyl)piperazin-1-yl)methyl)-3-methylphenyl)thieno[3,2-d]pyrimidin-6-yl)methyl)-3-azabicyclo[3.1.0]hexane-2,4-dione] |
| > 0.1 | Cc1cc(Cl)cc(-c2ccnc3cc(Cn4c(=O)ccn(CC(F)(F)F)c4=O)sc23)c1CN1CCNCC1=O [Example 4, 3-((7-(5-chloro-3-methyl-2-((2-oxopiperazin-1-yl)methyl)phenyl)thieno[3,2-b]pyridin-2-yl)methyl)-1-(2,2,2-trifluoroethyl)pyrimidine-2,4(1H,3H)-dione] |
| < 0.01 | O=C1CCC(=O)N1Cc1cc2ncnc(-c3cc(Cl)cc(Cl)c3CC3CNCCO3)c2s1 (stereo not drawn) [Example 204, 1-((4-(3,5-dichloro-2-(morpholin-2-ylmethyl)phenyl)thieno[3,2-d]pyrimidin-6-yl)methyl)pyrrolidine-2,5-dione] |
| 0.01 to 0.1 | Cc1cc(Cl)cc(-c2ccnc3cc(CN4C(=O)CCC4=O)sc23)c1CN1C[C@@H](C)N[C@@H](C)C1 [Example 19, 1-((7-(5-chloro-2-(((3 S,5R)-3,5-dimethylpiperazin-1-yl)methyl)-3-methylphenyl)thieno[3,2-b]pyridin-2-yl)methyl)pyrrolidine-2,5-dione] |
| < 0.01 | Cc1cc(Cl)cc(-c2ncnc3cc(CN4C(=O)CN(C)C4=O)sc23)c1C[C@@H]1CNCC(C)(C)O1 [Example 275, (R)-3-((4-(5-chloro-2-((6,6-dimethylmorpholin-2-yl)methyl)-3-methylphenyl)thieno[3,2-d]pyrimidin-6-yl)methyl)-1-methylimidazolidine-2,4-dione] |
